Several values for one entry are separate records, joined by “and”; a condition that tells them apart may be missing. Identical values can stand only once.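 Interpolation was linear, between the two tested concentrations surrounding the appropriate level; five concentrations were tested over 48 hours in 96-well plates. At the GI50, growth is halved. At the TGI there is no net growth.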
Experiments:
Experiment in all cases: inhibition of tumour cell growth, NCI panel, 48 h
[1] = tested on: OVCAR-5 ovarian
[2] = tested on: ACHN renal
[3] = tested on: 786-0 renal
[4] = tested on: HL-60(TB) leukemia
[5] = tested on: T-47D breast
[6] = tested on: OVCAR-3 ovarian
[7] = tested on: HCT-15 colon
[8] = tested on: SK-MEL-5 melanoma
[9] = tested on: BT-549 breast
[10] = tested on: MDA-MB-435

`CCOC(=O)c1cccc(NC(=O)CCl)c1` gave a TGI [1] of 16.9 µM, a TGI [2] of 9.19 µM and a TGI [3] of 4.02 µM. The TGI [4] was 13.2 µM, the TGI [5] was 10.1 µM and the TGI [6] was 4.44 µM. For the same compound, the TGI [7] was 12.4 µM, the TGI [8] was 3.69 µM and the TGI [9] was 17.9 µM. It also gave a TGI [10] of 7.41 µM.

Compound `O=C(c1ccccc1)c1ccc2c(c1)nc1n2C(c2c(Cl)cccc2Cl)SC1` (stereo unspecified) has a TGI [1] of over 100 µM, a TGI [2] of over 100 µM and a TGI [3] of over 100 µM. It also gave a TGI [4] of over 100 µM, a TGI [5] of over 100 µM and a TGI [6] of over 100 µM. It also gave a TGI [7] of over 100 µM, a TGI [8] of over 100 µM and a TGI [9] of over 100 µM. The TGI [10] was over 100 µM.

Compound `COC(=O)c1c2c(cc3c1CC1(Cc4ccccc4C1=O)C3)CCC2` (stereo unspecified) has a TGI [1] of over 100 µM, a TGI [2] of over 100 µM and a TGI [3] of over 100 µM. For the same compound, the TGI [4] was 53.1 µM, the TGI [5] was over 100 µM and the TGI [6] was over 100 µM. For the same compound, the TGI [7] was over 100 µM, the TGI [8] was 29.5 µM and the TGI [10] was 40.3 µM.

With `Cc1nc2c(=S)[nH]ncc2[nH]1` the TGI [1] was over 100 µM, the TGI [2] was over 100 µM and the TGI [3] was over 100 µM. The TGI [4] was over 100 µM, the TGI [5] was over 100 µM and the TGI [6] was over 100 µM. It also gave a TGI [7] of over 100 µM, a TGI [8] of over 100 µM and a TGI [9] of over 100 µM. It also gave a TGI [10] of over 100 µM.

`COc1cc(/C=C/C(=O)OCC23CC[C@@]4(C(=O)O)CCC(C)[C@H](C)C4C2=CCC2[C@@]4(C)CC[C@H](O)C(C)(C)C4CC[C@]23C)ccc1O` (stereo partly specified) was tested, and the TGI [1] was 46.4 µM, the TGI [2] was 8.24 µM and the TGI [3] was 31.7 µM. The TGI [4] was 51.1 µM, the TGI [5] was over 100 µM and the TGI [6] was 14.3 µM. It also gave a TGI [7] of 56.3 µM, a TGI [8] of 32.9 µM and a TGI [9] of 50.6 µM. The TGI [10] was 57 µM.

`Cc1ccc(C)n1-c1ccccc1C1SCCCS1` showed a TGI [1] of over 100 µM, a TGI [2] of over 100 µM and a TGI [3] of over 100 µM. It also gave a TGI [4] of over 100 µM, a TGI [6] of over 100 µM and a TGI [7] of over 100 µM. It also gave a TGI [8] of over 100 µM, a TGI [9] of over 100 µM and a TGI [10] of over 100 µM.

In the case of `C1=C\SS/C=C\SS/C=C\SS/C=C\SS/1`, the TGI [1] is reported as over 100 µM, the TGI [2] is reported as over 100 µM and the TGI [3] is reported as over 100 µM. The TGI [4] was 58.1 µM, the TGI [5] was over 100 µM and the TGI [7] was 55.8 µM. It also gave a TGI [8] of over 100 µM, a TGI [9] of over 100 µM and a TGI [10] of over 100 µM.

Compound `COC(=O)[C@H](Cc1ccccc1)NC(=O)c1ccc(CNC(=O)/C=C/c2ccc(-c3ccccc3)cc2)cc1` has a TGI [1] of over 100 µM, a TGI [2] of over 100 µM and a TGI [3] of over 100 µM. It also gave a TGI [4] of over 100 µM, a TGI [5] of over 100 µM and a TGI [6] of over 100 µM. For the same compound, the TGI [7] was over 100 µM, the TGI [8] was over 100 µM and the TGI [9] was 97.2 µM. It also gave a TGI [10] of over 100 µM.

Work on `O=C(Cn1c(=O)oc2ccc(C(=O)c3ccc(F)cc3)cc21)c1ccc([N+](=O)[O-])cc1` yielded a TGI [1] of over 100 µM, a TGI [2] of over 100 µM and a TGI [3] of over 100 µM. The TGI [4] was 60 µM, the TGI [5] was over 100 µM and the TGI [7] was over 100 µM. It also gave a TGI [8] of 34 µM and a TGI [10] of 72.9 µM.

Work on `CC[n+]1cnc(N)c2c(-c3ccc(Cl)cc3)cn(-c3ccc(C)cc3)c21` yielded a TGI [1] of 29.7 µM, a TGI [2] of 25.6 µM and a TGI [3] of 23.5 µM. It also gave a TGI [4] of 44.3 µM, a TGI [5] of 32.2 µM and a TGI [6] of 21.6 µM. For the same compound, the TGI [7] was 32.6 µM, the TGI [8] was 22 µM and the TGI [10] was 23.7 µM.

Work on `COC(=O)N1CC2(CO)C3CC=C(C(=O)Nc4ccccc4Br)C2C1C3Br` (stereo unspecified) yielded a TGI [1] of over 50 µM, a TGI [2] of over 50 µM and a TGI [3] of over 50 µM. The TGI [4] was over 50 µM, the TGI [5] was over 50 µM and the TGI [6] was over 50 µM. It also gave a TGI [7] of over 50 µM, a TGI [8] of over 50 µM and a TGI [10] of over 50 µM.

Compound `CC1=NN(c2nc(N)nc(-c3ccccc3S(N)(=O)=O)n2)C(C)(C)C1` has a TGI [1] of over 100 µM, a TGI [2] of 82.1 µM and a TGI [3] of over 100 µM. The TGI [4] was 41.2 µM, the TGI [5] was over 100 µM and the TGI [6] was over 100 µM. The TGI [7] was over 100 µM, the TGI [8] was over 100 µM and the TGI [10] was over 100 µM.

For `Nc1nc(Cl)cc(NCC2(O)CC(CO)C2)n1` (stereo unspecified), the TGI [1] was over 100 µM, the TGI [2] was over 100 µM and the TGI [3] was over 100 µM. The TGI [4] was over 100 µM, the TGI [5] was over 100 µM and the TGI [6] was over 100 µM. The TGI [7] was over 100 µM, the TGI [8] was over 100 µM and the TGI [9] was over 100 µM. It also gave a TGI [10] of over 100 µM.

With `CC(C)(C)OC(=O)CN1CCNCCNCC1` the TGI [1] was over 100 µM, the TGI [2] was over 100 µM and the TGI [3] was over 100 µM. For the same compound, the TGI [5] was over 100 µM, the TGI [6] was over 100 µM and the TGI [7] was over 100 µM. It also gave a TGI [8] of over 100 µM, a TGI [9] of over 100 µM and a TGI [10] of over 100 µM.

`O=C1c2ccccc2C(=O)N1n1c(Cc2ccccc2)n[nH]c1=O` showed a TGI [1] of over 100 µM, a TGI [2] of over 100 µM and a TGI [3] of over 100 µM. For the same compound, the TGI [5] was over 100 µM, the TGI [6] was over 100 µM and the TGI [7] was over 100 µM. For the same compound, the TGI [8] was over 100 µM, the TGI [9] was over 100 µM and the TGI [10] was over 100 µM.

`O=C(O)c1ccccc1.[Ag]` gave a TGI [1] of 45.1 µM, a TGI [2] of 19.1 µM and a TGI [3] of 32.7 µM. For the same compound, the TGI [4] was over 42 µM, the TGI [5] was 5.28 µM and the TGI [6] was 28.5 µM. The TGI [7] was 49.5 µM, the TGI [8] was 19.5 µM and the TGI [9] was 64.9 µM. For the same compound, the TGI [10] was 31.7 µM.

`C1CC2=C(C1)[Se]C(=C1Sc3nsnc3S1)[Se]2` gave a TGI [1] of over 100 µM, a TGI [2] of over 100 µM and a TGI [3] of over 100 µM. For the same compound, the TGI [5] was over 100 µM, the TGI [6] was over 100 µM and the TGI [7] was over 100 µM. For the same compound, the TGI [8] was over 100 µM, the TGI [9] was over 100 µM and the TGI [10] was over 100 µM.

`C=CCNC(=S)Nc1sc2c(c1C(=O)OCC)CC(C)CC2` (stereo unspecified) gave a TGI [1] of 76 µM, a TGI [2] of 53.6 µM and a TGI [3] of over 100 µM. For the same compound, the TGI [4] was 14.7 µM, the TGI [5] was 66.7 µM and the TGI [6] was 50.1 µM. For the same compound, the TGI [7] was over 100 µM, the TGI [8] was 30.7 µM and the TGI [9] was over 100 µM. For the same compound, the TGI [10] was over 100 µM.

For `c1ccc(CNC2CC(NCc3ccccn3)CC(NCc3ccccn3)C2)nc1` (stereo unspecified), the GI50 [1] was 3.66 µM and 14.4 µM and 2.89 µM, the TGI [1] was 14.4 µM and 25 µM and 8.94 µM and the TGI [2] was 47.3 µM and 25 µM and 35.7 µM. For the same compound, the TGI [3] was 9.95 µM and 5.87 µM and 6.09 µM, the GI50 [4] was 2.78 µM and 1.23 µM and the TGI [4] was 10.5 µM and 10.2 µM. For the same compound, the GI50 [5] was 6.64 µM, the TGI [5] was 21.5 µM and 25 µM and 25.6 µM and the GI50 [6] was 4.59 µM. For the same compound, the TGI [6] was 9.72 µM and 12.1 µM and 15.9 µM, the TGI [7] was > 75.2 µM and 25 µM and > 100 µM and the GI50 [8] was 1.88 µM. The TGI [8] was 5.52 µM and 7.49 µM and 3.68 µM, the GI50 [9] was 18.2 µM and the TGI [9] was 17.1 µM and 10.5 µM and 38 µM. For the same compound, the GI50 [10] was 3.84 µM and the TGI [10] was 9.45 µM and 8.78 µM and 15.5 µM.

`Cc1c2cc[nH]c(C(F)(F)F)c2cc2c1nc1ccccc12` showed a TGI [1] of over 125 µM, a TGI [4] of over 125 µM and a TGI [6] of over 125 µM. The TGI [7] was over 125 µM and the TGI [8] was over 125 µM.

`C=C(C)[C@@]1(O)O[C@H]2C[C@@]3(C)OC(=CC3=O)/C(C)=C\[C@@H]3OC(=O)[C@@]1(C)[C@H]32` showed a TGI [1] of 19.7 µM, a TGI [2] of over 77.1 µM and a TGI [3] of 26.7 µM. The TGI [4] was over 47.2 µM, the TGI [5] was 59.2 µM and the TGI [6] was 34.2 µM. For the same compound, the TGI [7] was 44 µM, the TGI [8] was 30.5 µM and the TGI [9] was 23.9 µM. For the same compound, the TGI [10] was over 100 µM.

Source: PubChem BioAssay (NCI)
